Measured values: patent publication US11485751B2, “Apramycin derivatives” (WAYNE STATE UNIVERSITY, priority 2017, dated 2022)
≈ marks a conversion by molar mass, not a printed value.

Key:
[1] = tested on: clinical isolates carrying APH(3′)-VI; test: MIC broth microdilution, APH(3′)-VI; type: cell-based; settings: IMM Univ. Zurich
[2] = tested on: clinical isolates carrying APH(3′)-II; test: MIC broth microdilution, APH(3′)-II; type: cell-based; settings: clinical isolates, IMM Univ. Zurich; APH(3′)-II; read-out: MIC APH(3′)-II
[3] = tested on: AG225, Acinetobacter baumannii pittii; test: MIC reference strain AG225; type: cell-based; settings: Acinetobacter baumannii, reference strain; read-out: MIC AG225 A. baumannii
Summary of the method: (§1)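 Broth microdilution per CLSI standard (aerobic bacteria); value reported is the MIC.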

[4] = tested on: AG033 P. aer. APH(3′)-II AAC(6′)-I; test: Antibacterial activity, clinical isolate AG033; type: cell-based; design: unit not given here
Summary of the method: (§2)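 Broth microdilution, CLSI dilution method for aerobic bacteria; read-out is minimal inhibitory concentration (MIC).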

AG173 E. coli AAC(3)-IV = test: Antibacterial activity, clinical isolate AG173; type: cell-based
Summary of the method: as §2

[5] = tested on: human cytosolic ribosomes; test: in-vitro translation assay, human cytosolic ribosomes; type: biochemical
Summary of the method: (§3)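 Reported values are IC50s for inhibition of in-vitro translation. For the mitochondrial target, human chimeric ribosomes were used. For the cytosolic target, rabbit reticulocyte ribosomes were used.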

AG032 P. aer. APH(3′)-II = test: Antibacterial activity, clinical isolate AG032; type: cell-based; design: unit not given here
Summary of the method: as §2

[6] = tested on: clinical isolates carrying APH(3′)-III; test: MIC broth microdilution, APH(3′)-III; type: cell-based; settings: IMM Univ. Zurich
[7] = tested on: Engineered E. coli pH424 armA; test: Activity against G1405-methylated 16S-rRNA, E. coli pH424 armA; type: cell-based
Summary of the method: (§4)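 Strains are tested by broth microdilution under the CLSI M07-A10 procedure. The lowest inhibitory concentration is recorded as the MIC.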

AG163 E. coli APH(3′)-I = test: Antibacterial activity, clinical isolate AG163; type: cell-based
Summary of the method: as §2

[8] = tested on: Engineered E. coli AG103 armA; test: Activity against G1405-methylated 16S-rRNA, E. coli AG103 armA; type: cell-based
Summary of the method: as §4

[9] = tested on: AG215, Klebsiella pneumonia; test: MIC reference strain AG215; type: cell-based; settings: Klebsiella pneumoniae, reference strain; read-out: MIC AG215 K. pneumonia
Summary of the method: as §1

AG031 P. aer. APH(3′)-II = test: Antibacterial activity, clinical isolate AG031; type: cell-based; design: unit not given here
Summary of the method: as §2

[10] = tested on: APH(3′, 5″) resistance determinant; test: Susceptibility to the APH(3′, 5″) resistance determinant; type: cell-based
From the text: Minimal inhibitory concentrations (MIC) have been determined by broth microdilution assays (CLSI. Methods for Dilution Antimicrobial Susceptibility Tests for Bacteria That Grow Aerobically; Approved Standard—Tenth Edition. CLSI document M07-A10. Wayne, Pa.: Clinical and Laboratory Standards Institute; 2015.).
The introduction of a formamido group results in compounds that display increased selectivity for the bacterial ribosome over the mitochondrial (wild type and A1555G mutant) ribosomes, predictive of reduced ototoxicity.

[11] = tested on: AG212, Escherichia coli ATCC25922; test: MIC reference strain AG212; type: cell-based; settings: Escherichia coli; reference strain ATCC25922; read-out: MIC AG212 E. coli
Summary of the method: as §1

[12] = tested on: Engineered E. coli pH427 rmtF; test: Activity against G1405-methylated 16S-rRNA, E. coli pH427 rmtF; type: cell-based
Summary of the method: as §4

[13] = tested on: AG039 MRSA AAC(6′)-I ANT(4′)-I; test: Antibacterial activity, clinical isolate AG039; type: cell-based
Summary of the method: as §2

[14] = tested on: AG042 MRSA AAC(6′)-I ANT(4′)-I APH(2′); test: Antibacterial activity, clinical isolate AG042; type: cell-based; design: unit not given here
Summary of the method: as §2

[15] = tested on: clinical isolates carrying AAC(3)-IV; test: MIC broth microdilution, AAC(3)-IV; type: cell-based; settings: clinical isolates, IMM Univ. Zurich; AAC(3)-IV; read-out: MIC AAC(3)-IV
Summary of the method: (§5)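 Clinical isolates supplied by the Zurich Institute of Medical Microbiology were tested for MIC (μg/ml) using CLSI M07-A10 broth microdilution.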

[16] = tested on: AG290, Enterobacter cloacae; test: MIC reference strain AG290; type: cell-based; settings: Enterobacter cloacae; reference strain; read-out: MIC AG290 E. cloacae
Summary of the method: as §1

ATCC19977 M. abcessus = test: MIC reference strain ATCC19977; type: cell-based; settings: read-out: MIC ATCC19977 M. abcessus
Summary of the method: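 Compounds are serially diluted in liquid medium in microplates, bacteria are added, and the lowest concentration preventing growth is recorded as the MIC (CLSI procedure).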

bacterial ribosomes = test: in-vitro translation assay, bacterial ribosomes; type: biochemical
Summary of the method: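 Cell-free translation; IC50 read-out. Mito = human chimeric ribosomes; cytosolic = rabbit reticulocyte ribosomes; bacterial ribosomes run in the same assay format.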

AG001 E. coli WT = test: Antibacterial activity, clinical isolate AG001; type: cell-based; design: unit not given here
Summary of the method: as §2

[17] = tested on: AG220, Pseudomonas aeruginosa ATCC27853; test: MIC reference strain AG220; type: cell-based; settings: Pseudomonas aeruginosa, ATCC27853, reference strain ATCC27853; read-out: MIC AG220 P. aeruginosa
Summary of the method: as §1

AG038 MRSA = test: Antibacterial activity, clinical isolate AG038; type: cell-based; design: unit not given here
Summary of the method: as §2

AG055 E. coli WT = test: Antibacterial activity, clinical isolate AG055; type: cell-based; design: unit not given here
Summary of the method: as §2

[18] = tested on: Engineered E. coli pH425 rmtB; test: Activity against G1405-methylated 16S-rRNA, E. coli pH425 rmtB; type: cell-based
Summary of the method: as §4

[19] = tested on: Engineered E. coli pH426 rmtC; test: Activity against G1405-methylated 16S-rRNA, E. coli pH426 rmtC; type: cell-based
Summary of the method: as §4

[20] = tested on: clinical isolates carrying APH(3′)-I; test: MIC broth microdilution, APH(3′)-I; type: cell-based; settings: IMM Univ. Zurich
[21] = tested on: human mitochondrial ribosomes; test: in-vitro translation assay, human mitochondrial (human chimeric) ribosomes; type: biochemical
Summary of the method: as §3

AG003 E. coli AAC(3)-II = test: Antibacterial activity, clinical isolate AG003; type: cell-based
Summary of the method: as §2

[22] = tested on: Engineered E. coli pH430 WT; test: Activity, engineered E. coli pH430 WT; type: cell-based; settings: wild type
Summary of the method: as §4

isolates carrying apmA = test: MIC broth microdilution, apmA; type: cell-based; settings: apmA resistance gene
Summary of the method: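 Clinical isolates carrying apmA, from the University of Zurich Institute of Medical Microbiology, were tested by broth microdilution following CLSI M07-A10; values are MICs in μg/ml.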

WT clinical isolates = test: MIC broth microdilution, WT; type: cell-based; settings: read-out: MIC WT, clinical isolates, IMM Univ. Zurich; wild type
Summary of the method: as §5

eukaryotic ribosomes = test: in-vitro translation assays, bacterial versus eukaryotic ribosomes; type: biochemical
From the text: IC50 values for bacterial, human chimeric, and rabbit reticulocyte ribosomes have been determined by in-vitro translation assays as described previously (Proc. Nat. Ac. Sci USA 2012, 109(27):10984-10989).

| Compound | MIC [3] [µg/mL] | Antibacterial activity AG033 P. aer. APH(3′)-II AAC(6′)-I [4] | Antibacterial activity AG173 E. coli AAC(3)-IV (AG173 E. coli AAC(3)-IV) | IC50 [5] [µM] | Antibacterial activity AG032 P. aer. APH(3′)-II (AG032 P. aer. APH(3′)-II) | Activity E. coli pH424 armA [7] | Antibacterial activity AG163 E. coli APH(3′)-I (AG163 E. coli APH(3′)-I) | Activity E. coli AG103 armA [8] | MIC [9] [µg/mL] | Antibacterial activity AG031 P. aer. APH(3′)-II (AG031 P. aer. APH(3′)-II) | MIC [11] [µg/mL] | Activity E. coli pH427 rmtF [12] | Antibacterial activity AG039 MRSA AAC(6′)-I ANT(4′)-I [13] | Antibacterial activity AG042 MRSA AAC(6′)-I ANT(4′)-I APH(2′) [14] | MIC [15] [µg/mL] | MIC [16] [µg/mL] | MIC (ATCC19977 M. abcessus) [µg/mL] | IC50 (bacterial ribosomes) [nM] | Antibacterial activity AG001 E. coli WT (AG001 E. coli WT) | MIC [17] [µg/mL] | further results |
| --- | --- | --- | --- | --- | --- | --- | --- | --- | --- | --- | --- | --- | --- | --- | --- | --- | --- | --- | --- | --- | --- |
| CNC1C(OC2OC(CO)C(N)C(O)C2O)OC2CC(N)C(OC3C(N)CC(N)C(O)C3OC3OC(CNC=O)C(OCCN)C3O)OC2C1O [DC186, 5-β-[3-O-(2-Aminoethyl)-5-deoxy-5-formamido-D-ribofuranosyl] apramycin] | 8 | 64 | 32 | 105 | 32 | 2 | 2 | 0.5-1 | 1 | 16 | 2 to 4 | 2 | 4-8 | 4-8 | > 32 | 1 to 2 | 8 (≈ 10.8 µM) | 60 | 2 | 16 to 32 | MIC [1]: 2 µg/mL (≈ 2.7 µM); MIC [2]: 2 µg/mL (≈ 2.7 µM); MIC [6]: 0.25 µg/mL (≈ 0.337 µM); susceptibility to the APH(3′, 5″) resistance determinant [10]: circumvent this problem; Antibacterial activity AG038 MRSA (AG038 MRSA): 4; Antibacterial activity AG055 E. coli WT (AG055 E. coli WT): 4; Activity E. coli pH425 rmtB [18]: 2; Activity E. coli pH426 rmtC [19]: 4; MIC [20]: 2 µg/mL (≈ 2.7 µM); IC50 [21]: 69 µM; Antibacterial activity AG003 E. coli AAC(3)-II (AG003 E. coli AAC(3)-II): 2; Activity E. coli pH430 WT [22]: 2 |
| CNC1C(OC2OC(CO)C(N)C(O)C2O)OC2CC(N)C(OC3C(N)CC(N)C(OCCO)C3O)OC2C1O (centres unmarked) [DC167, 6-O-(2-Hydroxyethyl)-apramycin] | 16 | 64-128 | >128 | 382 | 32-64 | 8 | 8-16 | 4 | 4 | 32-64 | 16 | 16 | 16-32 | 64 | > 32 | 8 | 2 (≈ 3.43 µM) | 180 | 16 | 32 | MIC (isolates carrying apmA): > 64 µg/mL; Antibacterial activity AG038 MRSA (AG038 MRSA): 16-32; Antibacterial activity AG055 E. coli WT (AG055 E. coli WT): 16; Activity E. coli pH425 rmtB [18]: 16; Activity E. coli pH426 rmtC [19]: 16; MIC (WT clinical isolates): 8 µg/mL (≈ 13.7 µM); IC50 [21]: 379 µM; Antibacterial activity AG003 E. coli AAC(3)-II (AG003 E. coli AAC(3)-II): 16; target specificity for bacterial versus human rRNA (eukaryotic ribosomes): increased target specificity; Activity E. coli pH430 WT [22]: 8 |
